Assay results reported in PubChem BioAssay AID248 (DTP/NCI, 2004).
Where “and” joins values, the source holds several entries; their conditions need not be identical. Identical values can stand only once. Toxic doses and inconclusive results are not listed. Rule as the data show it: active = T/C of 150% or more; inactive = T/C below 125%.

System: L1210 leukemia ip in BDF1 mice, survival T/C
Assay: NCI In Vivo Anticancer Drug Screen. Data for tumor model L1210 Leukemia (intraperitoneal) in B6D2F1 (BDF1) mice
Conditions: endpoint: mean survival time, higher = longer survival
Method in brief: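 Value reflects the ratio of survival in compound-treated mice to survival in vehicle-treated controls, with both groups carrying the same transplanted tumor.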

[1] = dose: 100.0 mg/kg/injection, schedule: Q01DX001 (ip), vehicle: saline
[2] = dose: 100.0 mg/kg/injection, schedule: Q04DX003 (ip), vehicle: Klucel (hydroxypropylcellulose) (HPC)
[3] = dose: 100.0 mg/kg/injection, schedule: Q04DX003 (ip), vehicle: acetone
[4] = dose: 200.0 mg/kg/injection, schedule: Q01DX001 (ip), vehicle: saline
[5] = dose: 200.0 mg/kg/injection, schedule: Q04DX003 (ip), vehicle: Klucel (hydroxypropylcellulose) (HPC)
[6] = dose: 200.0 mg/kg/injection, schedule: Q04DX003 (ip), vehicle: acetone
[7] = dose: 400.0 mg/kg/injection, schedule: Q01DX001 (ip), vehicle: saline
[8] = dose: 400.0 mg/kg/injection, schedule: Q04DX003 (ip), vehicle: acetone
[9] = dose: 100.0 mg/kg/injection, schedule: Q01DX009 (ip), vehicle: saline
[10] = dose: 100.0 mg/kg/injection, schedule: Q04DX003 (ip), vehicle: saline
[11] = dose: 200.0 mg/kg/injection, schedule: Q04DX003 (ip), vehicle: saline
[12] = dose: 400.0 mg/kg/injection, schedule: Q04DX003 (ip), vehicle: saline
[13] = dose: 50.0 mg/kg/injection, schedule: Q01DX009 (ip), vehicle: saline with Tween-80
[14] = dose: 100.0 mg/kg/injection, schedule: Q01DX009 (ip), vehicle: saline with Tween-80
[15] = dose: 100.0 mg/kg/injection, schedule: Q04DX003 (ip), vehicle: saline with Tween-80
[16] = dose: 200.0 mg/kg/injection, schedule: Q04DX003 (ip), vehicle: saline with Tween-80
[17] = dose: 200.0 mg/kg/injection, schedule: Q01DX009 (ip), vehicle: saline with Tween-80
[18] = dose: 100.0 mg/kg/injection, schedule: Q01DX009 (ip), vehicle: Klucel (hydroxypropylcellulose) (HPC)
[19] = dose: 200.0 mg/kg/injection, schedule: Q01DX009 (ip), vehicle: Klucel (hydroxypropylcellulose) (HPC)

Measured: T/C

COC(=O)c1sccc1C=O
inactive: dose: 50.0 mg/kg/injection, schedule: Q01DX001 (ip), vehicle: saline 103 % of control | [1] 100 % of control | [2] 100 % of control | [3] 98 % of control | [4] 100 % of control | [5] 104 % of control | [6] 102 % of control | [7] 97 % of control | dose: 400.0 mg/kg/injection, schedule: Q04DX003 (ip), vehicle: Klucel (hydroxypropylcellulose) (HPC) 105 % of control | [8] 89 % of control

CN1C(OO)CCOP1(=O)N(CCCl)CCCl (stereo unspecified)
inactive: dose: 75.0 mg/kg/injection, schedule: Q01DX001 (ip), vehicle: DMSO 96 % of control | dose: 150.0 mg/kg/injection, schedule: Q01DX001 (ip), vehicle: DMSO 99 % of control

C=CCSCCC
inactive: [9] 90 % of control | [10] 96 % of control | dose: 200.0 mg/kg/injection, schedule: Q01DX009 (ip), vehicle: saline 90 % of control | [11] 104 % of control | dose: 400.0 mg/kg/injection, schedule: Q01DX009 (ip), vehicle: saline 90 % of control | [12] 91 % of control

O=C(O)/C=C/C(=O)N1Cc2cc3ccccc3nc2C1
inactive: dose: 10.0 mg/kg/injection, schedule: Q04DX003 (ip), vehicle: saline 99 % of control | dose: 20.0 mg/kg/injection, schedule: Q04DX003 (ip), vehicle: saline 99 % of control | dose: 40.0 mg/kg/injection, schedule: Q04DX003 (ip), vehicle: saline 105 % of control | dose: 80.0 mg/kg/injection, schedule: Q04DX003 (ip), vehicle: saline 100 % of control | dose: 160.0 mg/kg/injection, schedule: Q04DX003 (ip), vehicle: saline 96 % of control

Cc1ccc(S(=O)(=O)CCCl)cc1
inactive: [2] 96 % of control | [5] 100 % of control

N#CCCCCN1C(=O)c2ccccc2C1=O
inactive: [13] 94 % of control | [14] 94 % of control | [15] 98 % of control | [16] 97 % of control

Cc1ccc(C(=O)C(F)(F)C(F)(F)C(F)(F)C(F)(F)C(F)(F)C(F)(F)C(F)(F)F)cc1
inactive: [1] 105 % of control | [10] 93 % of control | [4] 102 % of control | [11] 95 % of control | [7] 103 % of control | [12] 92 % of control

O=[N+]([O-])c1ccc(NCCO)c([N+](=O)[O-])c1
inactive: [14] 98 % of control | [15] 88 % of control | [17] 106 % of control | [16] 97 % of control | dose: 400.0 mg/kg/injection, schedule: Q04DX003 (ip), vehicle: saline with Tween-80 88 % of control

[Co].[NH-]C(=O)c1ccccn1.[NH2-].[NH2-].[NH2-].[NH2-].[NH2-]
inactive: dose: 100.0 mg/kg/injection, schedule: Q04DX002 (ip), vehicle: saline 118 % of control | dose: 200.0 mg/kg/injection, schedule: Q04DX002 (ip), vehicle: saline 101 % of control | dose: 400.0 mg/kg/injection, schedule: Q04DX002 (ip), vehicle: saline 108 % of control

COc1cc([N+](=O)[O-])c(C)cc1Br
inactive: [1] 105 % of control | [3] 98 % of control | [4] 107 % of control | [6] 100 % of control | [7] 107 % of control | [8] 95 % of control

CC1=CC(=O)C(c2ccccc2)CC1 (stereo unspecified) (tested in a mixture with another compound)
inactive: [13] 96 % of control | [14] 96 % of control | [17] 96 % of control

CC(=O)OC1(C(C)=O)CCC2C3CC(C)(O)C4=CC(=O)CCC4(C)C3CCC21C (stereo unspecified)
inactive: dose: 25.0 mg/kg/injection, schedule: Q01DX009 (ip), vehicle: Klucel (hydroxypropylcellulose) (HPC) 97 % of control | dose: 50.0 mg/kg/injection, schedule: Q01DX009 (ip), vehicle: Klucel (hydroxypropylcellulose) (HPC) 95 % of control | [18] 103 % of control | [19] 101 % of control

O=[N+]([O-])c1ccc(N=N/C(=N\Nc2ccccc2)c2ccccc2)cc1
inactive: [18] 89 % of control | [19] 89 % of control | dose: 400.0 mg/kg/injection, schedule: Q01DX009 (ip), vehicle: Klucel (hydroxypropylcellulose) (HPC) 94 % of control

CCCNC
inactive: dose: 50.0 mg/kg/injection, schedule: Q01DX009 (ip), vehicle: saline 90 % of control | [9] 100 % of control | [10] 96 % of control | [11] 98 % of control

CCCCCCCCCC(=O)Nc1ccccc1CC
inactive: dose: 100.0 mg/kg/injection, schedule: Q04DX002 (ip), vehicle: other 116 % of control | dose: 200.0 mg/kg/injection, schedule: Q04DX002 (ip), vehicle: other 105 % of control | dose: 400.0 mg/kg/injection, schedule: Q04DX002 (ip), vehicle: other 101 % of control

O=C1c2c(ccc3ccccc23)CCC1CN1CCCCC1 (stereo unspecified)
inactive: [1] 102 % of control | [4] 108 % of control | [7] 112 % of control

S=c1nc[nH]c2n[nH]nc12
inactive: dose: 12.5 mg/kg/injection, schedule: Q01DX001 (ip), vehicle: saline with Tween-80 104 % of control | dose: 25.0 mg/kg/injection, schedule: Q01DX001 (ip), vehicle: saline with Tween-80 103 % of control | dose: 50.0 mg/kg/injection, schedule: Q01DX001 (ip), vehicle: saline with Tween-80 98 % of control | dose: 100.0 mg/kg/injection, schedule: Q01DX001 (ip), vehicle: saline with Tween-80 98 % of control | dose: 200.0 mg/kg/injection, schedule: Q01DX001 (ip), vehicle: saline with Tween-80 101 % of control | dose: 400.0 mg/kg/injection, schedule: Q01DX001 (ip), vehicle: saline with Tween-80 103 % of control

Cc1cccc(NC(=O)c2ccc(Cl)cc2Cl)n1 (tested in a mixture with another compound)
inactive: dose: 100.0 mg/kg/injection, schedule: Q04DX002 (ip), vehicle: Klucel (hydroxypropylcellulose) (HPC) 103 % of control | dose: 200.0 mg/kg/injection, schedule: Q04DX002 (ip), vehicle: Klucel (hydroxypropylcellulose) (HPC) 103 % of control | dose: 400.0 mg/kg/injection, schedule: Q04DX002 (ip), vehicle: Klucel (hydroxypropylcellulose) (HPC) 92 % of control

CCOC(=O)c1cc2ccccc2oc1=O
inactive: dose: 25.0 mg/kg/injection, schedule: Q01DX009 (ip), vehicle: saline with Tween-80 102 % of control | dose: 25.0 mg/kg/injection, schedule: Q04DX003 (ip), vehicle: saline with Tween-80 103 % of control | dose: 50.0 mg/kg/injection, schedule: Q01DX001 (ip), vehicle: other 95 % of control | [13] 98 % of control | dose: 50.0 mg/kg/injection, schedule: Q04DX003 (ip), vehicle: saline with Tween-80 98 % of control and 89 % of control | [14] 94 % of control | [15] 100 % of control and 103 % of control

COC1OC(COS(=O)OC)C(O)C(O)C1OS(=O)OC (stereo unspecified)
inactive: dose: 100.0 mg/kg/injection, schedule: Q01DX001 (ip), vehicle: carboxymethylcellulose (CMC) 100 % of control | dose: 200.0 mg/kg/injection, schedule: Q01DX001 (ip), vehicle: carboxymethylcellulose (CMC) 97 % of control | dose: 400.0 mg/kg/injection, schedule: Q01DX001 (ip), vehicle: carboxymethylcellulose (CMC) 94 % of control

O=C(O)CSC(=S)c1ccccc1
inactive: dose: 25.0 mg/kg/injection, schedule: Q04DX002 (ip), vehicle: saline with Tween-80 103 % of control | dose: 50.0 mg/kg/injection, schedule: Q04DX002 (ip), vehicle: saline with Tween-80 103 % of control | dose: 50.0 mg/kg/injection, schedule: Q04DX003 (ip), vehicle: Klucel (hydroxypropylcellulose) (HPC) 108 % of control | [14] 93 % of control | dose: 100.0 mg/kg/injection, schedule: Q04DX002 (ip), vehicle: saline with Tween-80 118 % of control | [2] 97 % of control | [10] 97 % of control | [17] 93 % of control | [5] 105 % of control | [11] 100 % of control | [12] 97 % of control

CCN(CC)COC(=O)C(C)(C)C
inactive: dose: 75.0 mg/kg/injection, schedule: Q01DX001 (ip), vehicle: carboxymethylcellulose (CMC) 103 % of control | dose: 150.0 mg/kg/injection, schedule: Q01DX001 (ip), vehicle: carboxymethylcellulose (CMC) 94 % of control
